# Data published in US20250205201A1, “USE OF L-ERGOTHIONEINE FOR ALLEVIATING AND PREVENTING AGE-RELATED LENS DEGENERATION” (NANJING NUTRABUILDING BIO-TECH CO., LTD., priority 2023, published 2025).
# Experiments:
# Type in all cases: in vivo, rat (Sprague-Dawley)
# rats' lenses (opacity) = experiment: Opacity distribution of lenses in sodium selenite-induced aged rats (ImageJ); settings: 2 or 10 mg/kg/d by gavage once daily for 6 months, vs non-supplement group
# Experimental: Ten-day-old suckling rats (Sprague-Dawley, SD) were maintained under the barrier conditions in a temperature-controlled environment and fed a commercial mouse chow. All rat pups received a single subcutaneous injection of sodium selenite (20 μmol/kg body weight) on postpartum day 11. The opacity distribution (by surface plot and plot profile) of the rats' lenses were determined from the captured images by ImageJ analysis software after feeding 7 days. Testing opacity distribution aimed to show whether the formation of age-related lens degeneration is successful. The rats were then injected of sodium selenite every two weeks. And then these induced successfully rats were fed a commercial mouse chow for 15 months if succeeding. Then these induced successfully rats were randomly divided into three groups: (1) non-supplement group (Group 1, Con, n=10); (2) L-ergothioncine supplement group with low dosage (Group 2, L-ergothioneine, 2 mg/kg/d, n=10); (3) L-ergothioncine supplement group with high dosage (Group 3, L-ergothioneine, 10 mg/kg/d, n=10). All rats were administered L-ergothioneine for once daily by gavage in normal saline solution for 6 months. The opacity distribution (by surface plot and plot profile) of the rats' lenses were observed from the captured images by ImageJ analysis software at the end of this study.
# [1] = test system: intracellular chronic reactive oxygen species (ROS) in lens epithelial cells (LEC); experiment: Cytosolic ROS level in isolated rat lenses (H2-DCFH-DA staining) after 6 months of supplementation; settings: FIG. 1
# Experimental: (§1) Ten-day-old suckling rats (Sprague-Dawley, SD) were maintained under the barrier conditions in a temperature-controlled environment and fed a commercial mouse chow. All rat pups received a single subcutaneous injection of sodium selenite (20 μmol/kg body weight) on postpartum day 11. The opacity distribution (by surface plot and plot profile) of the rats' lenses were determined from the captured images by ImageJ analysis software after feeding 7 days. Testing opacity distribution aimed to show whether the formation of age-related lens degeneration is successful. The rats were then injected of sodium selenite every two weeks. And then these induced successfully rats were fed a commercial mouse chow for 15 months if succeeding.
# Then these induced successfully rats were randomly divided into three groups: (1) non-supplement group (Group 1, Con, n=10); (2) L-ergothioncine supplement group with low dosage (Group 2, L-ergothioneine, 2 mg/kg/d, n=10); (3) L-ergothioncine supplement group with high dosage (Group 3, L-ergothioneine, 10 mg/kg/d, n=10). All rats were administered L-ergothioneine for once daily by gavage in normal saline solution for 6 months. The opacity distribution (by surface plot and plot profile) of the rats' lenses were observed from the captured images by ImageJ analysis software at the end of this study. […]
# Nrf2 = Nrf2 mRNA level in LECs by real-time PCR after 6 months of supplementation; settings: FIG. 2
# Experimental: as §1, with “succeeding. […]” for “succeeding.”
# Nrf2 dependent antioxidant protection system plays a crucial role in scavenging ROS generated during various biochemical reactions. […] Real-time PCR was measured and performed with the following primers: Nrf2 forward 5′-[…]-3′. RNA samples were reverse-transcribed to cDNA and subjected to quantitative PCR, performed with a Light Cycler 96 Real-Time PCR System using the AceQ qPCR SYBR Green Master Mix. […]
smiles,measurement,setting,value
"C[N+](C)(C)[C@@H](Cc1c[nH]c(=S)[nH]1)C(=O)[O-] [ergothioneine, L-ergothioneine]",opacity of lens (opacity distribution by surface plot and plot profile),rats' lenses (opacity),effectively ameliorate or alleviate the opacity of lens
same,"efficacy in ROS scavenging, high-dose group compared to low-dose group",[1]; 10 mg/kg/d vs 2 mg/kg/d by gavage for 6 months,approximately double
same,reduction of intracellular chronic ROS levels in LEC compared to the non-supplementation group,[1]; 2 and 10 mg/kg/d by gavage for 6 months,more than 25%
same,increase of Nrf2 mRNA level in LECs over placebo,"Nrf2; high-dose group, 10 mg/kg/d by gavage for 6 months",around 180%
same,increase of Nrf2 mRNA level in LECs compared to placebo,"Nrf2; low-dose group, 2 mg/kg/d by gavage for 6 months",~50%
